Laboratory results reported in patent US20210345603A1, “COMPOSITION INTENDED FOR INCREASING THE VELOCITY OF SPERMS COMPRISING SEROTONIN AS ACTIVE COMPOUND” (YILDIZ TEKNÍK ÜNIÌVERSÍTESÌ, priority 2018, published 2021).

Assays:
[1] = tested on: fruit flies; details: fruit flies incapable of mating, after being fed with serotonin; cited from earlier work
[2] = tested on: sperm cells; experiment: Sperm motility test in Makler counting chamber after incubation in sperm wash medium; assay type: cell-based, human; set-up: unit not given here
Protocol: The first step is to collect the sperm cells and the semen of the infertile men within the range of 28-45 is used. Specimens are obtained after a sexual abstinence for 3-4 days. All semen specimens are collected in sterile containers and left to liquefy at 37° C. for 30 minutes. 10 μl of sample is taken into Makler® counting chamber and the concentrations, motilities, viabilities, morphologies of the sperms and the leukocyte existence are evaluated. According to the motility results, the semen specimen is prepared by being washed with HTF based sperm wash solution containing Hepes buffer by using concentration and gradient methods. Washed and prepared sperms are collected in the sperm wash medium in which certain amounts of (25, 50, 100 and 200 μM) 5-HT was added, and incubated at 25′C in certain periods of time (30, 60, 90 and 120 minutes).
Sperm motility tests are performed with the sperms kept in a serotonin medium, by the measurements in the Makler® counting chamber with 30, 60, 90 and 120 min. intervals. Samples with a sperm concentration of 2×10^6 and 50×10^5 per ml max. are included in the analyses. As to the interactions of serotonin and the excipients, washed sperm cells are taken into the sperm wash mediums containing 5-HT and vitamin D, serotonin, selenium, zinc mineral, vitamin C, vitamin E, vitamin B9, vitamin B12 in certain amounts respectively, and are incubated for certain time intervals in an incubator. The dosage of the compounds is determined by examining the effect of the same on sperm motility, both individually and in combination.

NCCc1c[nH]c2ccc(O)cc12 [serotonin]
Mating rate [1]: 25%
Change in Average Motility ([2]; 25 μM serotonin, 30 min incubation at 25° C.): 82.76
Change in Average Motility ([2]; 25 μM serotonin, 60 min incubation at 25° C.): 86.28
Change in Average Motility ([2]; 25 μM serotonin, 90 min incubation at 25° C.): 81.48
Change in Average Motility ([2]; 25 μM serotonin, 120 min incubation at 25° C.): 81.41
Change in Average Motility ([2]; 50 μM serotonin, 30 min incubation at 25° C.): 80.56
Change in Average Motility ([2]; 50 μM serotonin, 60 min incubation at 25° C.): 81.66
Change in Average Motility ([2]; 50 μM serotonin, 90 min incubation at 25° C.): 86.08
Change in Average Motility ([2]; 50 μM serotonin, 120 min incubation at 25° C.): 80.45
Change in Average Motility ([2]; 100 μM serotonin, 30 min incubation at 25° C.): 83.53
Change in Average Motility ([2]; 100 μM serotonin, 60 min incubation at 25° C.): 80.16
Change in Average Motility ([2]; 100 μM serotonin, 90 min incubation at 25° C.): 83.86
Change in Average Motility ([2]; 100 μM serotonin, 120 min incubation at 25° C.): 80.4
Change in Average Motility ([2]; 200 μM serotonin, 30 min incubation at 25° C.): 82.06
Change in Average Motility ([2]; 200 μM serotonin, 60 min incubation at 25° C.): 86.46
Change in Average Motility ([2]; 200 μM serotonin, 90 min incubation at 25° C.): 86.55
Change in Average Motility ([2]; 200 μM serotonin, 120 min incubation at 25° C.): 82.55
